According to patent US20050124622A1, “Compounds and methods for the treatment of pain” (priority 1999, published 2005):
Read-outs that look alike come from different tables or passages of the source.

Target: T1, NMDA receptor glycine site (Rattus norvegicus, UniProt P35439)
T1 construct: brain membranes bearing the receptor; tissue Analytical Biological Services Inc; host or cells: rat brain (cerebral cortex and hippocampus) membranes
Test: Test A: Inhibition of binding of [3H]-MDL105,519 to brain membranes
Description: Test A: Inhibition of Binding of [^3H]-MDL105,519:
Binding of compounds to the NMDA receptor glycine site may be assessed by measuring the ability of test compounds to inhibit the binding of tritiated MDL105,519 to brain membranes bearing the receptor.
Briefly, fresh brain tissue including cerebral cortex and hippocampus from male Sprague Dawley rats was homogenized in 0.32 M sucrose and centrifuged at low speed to separate cellular membranes from other cellular components. The membranes were then washed 3 times using deionized water, followed by treatment with 0.04% Triton X-100. Finally, membranes were washed six times in 50 mM Tris citrate buffer, pH 7.4, and frozen at −80° C. until use.
[^3H]MDL105,519 (72 Ci/mmol) was purchased from Amersham. Cold MDL105,519 was purchased from Sigma/RBI. […] On the day of the experiment, brain membranes were thawed at room temperature and suspended in 50 mM tris acetate buffer, pH 7.4 (“TAB”). Seventy-five micro grams per milliliter protein (by using the BioRad dye) were used for competition binding. The experiments were carried out using 96-well plates. […] Non specific binding was determined by using 100 μM of unlabeled MDL105,519. […] After incubation, unbound [^3H]MDL105,519 was removed by filtration onto GF/B Unifilter plates using a Packard harvester. Filters were washed four times with ice cold TAB (total of 1.2 mL buffer). The plates were dried overnight at room temperature and bound radioactivity was measured on a Packard TopCount after the addition of 45 μL per well of the MICROSCINT O.
Human Brain Membranes: Human brain membranes were obtained from Analytical Biological Services Inc., and assays were performed as described for rat membranes.
Data analysis: Data was analyzed using a Microsoft Excel spreadsheet and GraphPad Prizm software and potency of compounds is expressed as the Ki (nM).

[1] = inhibition of 1.2 nM [3H]MDL105,519 binding to brain membranes, 30 minutes at room temperature

Ki [nM]	Structure (SMILES)	Ki [1] [nM]
449	O=c1c2ccc(Cl)cc2[nH]c2c(O)nn(CC3CCCO3)c(=O)c12 (racemic) [Ex. 4, 7-Chloro-4-hydroxy-2-(tetrahydro-furan-2-ylmethyl)-1,2,5,10-tetrahydropyridazino[4,5-b]quinoline-1,10-dione]	–
173	O=Cc1ccc(Cn2nc(O)c3[nH]c4cc(Cl)ccc4c(=O)c3c2=O)cc1 [Ex. 7, 4-[(7-Chloro-4-hydroxy-1,10-dioxo-2.5-dihydropyridazino[4,5-b]quinolin-2-yl)methyl]benzaldehyde]	–
124	CC(C)(C)OC(=O)NN=Cc1ccc(Cn2nc(O)c3[nH]c4cc(Cl)ccc4c(=O)c3c2=O)cc1 [Ex. 8]	–
91	O=C(NN=Cc1ccc(Cn2nc(O)c3[nH]c4cc(Cl)ccc4c(=O)c3c2=O)cc1)c1ccccc1 [Ex. 10]	–
227	Cc1cc(C)c(S(=O)(=O)NN=Cc2ccc(Cn3nc(O)c4[nH]c5cc(Cl)ccc5c(=O)c4c3=O)cc2)c(C)c1 [Ex. 11, 2-{[4-(2-Aza-2-{[(2,4,6-trimethylphenyl)sulfonyl]amino}vinyl)phenyl]methyl}-7-chloro-4-hydroxy-2,5-dihydropyridazino[4,5-b]quinoline-1,10-dione]	–

Continued, compound first:

Structure (SMILES)	Ki [nM]	Ki [1] [nM]
O=c1c2ccc(Cl)cc2[nH]c2c(O)nn(Cc3ccc(-c4nnco4)cc3)c(=O)c12 [Ex. 1, 7-Chloro-4-hydroxy-2-(4-[1,3,4]oxadiazol-2-yl-benzyl)-1,2,5,10-tetrahydropyridazino[4,5-b]quinoline-1,10-dione]	95.8	–
O=c1c2ccc(Cl)cc2[nH]c2c(O)nn(Cc3cccc(-c4nnn[nH]4)c3)c(=O)c12 [Ex. 2, 7-Chloro-4-hydroxy-2-[3-(1H-tetrazol-5-yl)-benzyl]-1,2,5,10-tetrahydropyridazino[4.5-b]quinoline-1,10-dione.]	–	42.7
Cc1ncc(CO)c(Cn2nc(O)c3[nH]c4cc(Cl)ccc4c(=O)c3c2=O)c1O [Ex. 3, 7-Chloro-4-hydroxy-2-[3-hydroxy-5(hydroxymethyl)-2-methyl(4-pyridyl)]methyl-1,2,5,10-tetrahydropyridazino[4,5-b]quinoline-1,10-dione Methanesulfonate]	1150	–
COc1ccc(-c2nnc(Cn3nc(O)c4[nH]c5cc(Cl)ccc5c(=O)c4c3=O)o2)cc1 [Ex. 5, 7-Chloro-4-hydroxy-2-[5-(4-methoxy-phenyl)-[1,3,4]oxadiazol-2-ylmethyl]-1,2,5,5,10-tetrahydropyridazino[4,5-b]quinoline-1,10-dione]	–	146
O=c1c2ccc(Cl)cc2[nH]c2c(O)nn(Cc3ccc(C=NNc4ccccn4)cc3)c(=O)c12 [Ex. 9, 2-{[4-[2-Aza-2-(2-pyridylamino)vinyl]phenyl}methyl)-7-chloro-4-hydroxy-2,5-dihydropyridazino[4,5-b]quinoline-1,10-dione]	159	–
